From US20250109126A1, “DIHYDRO-OXAZOL DERIVATIVE COMPOUNDS” (AC IMMUNE SA, priority 2021, published 2025) come the findings set out here.

This test concerns NLRP3 inflammasome pathway. Description: NLRP3 inflammasome pathway activation assay, IL-1β release (HTRF) in human monocyte-like cells stimulated with MSU or Nigericin. Format: cell-based. As for the experimental part:
The following assays were used to determine the inhibitory activity of test compounds on the NLRP3 inflammasome pathway using common stimuli Nigericin (Invivogen) or monosodium urate crystals (MSU) (Invivogen).
Human monocyte-like cells were cultured in RPMI-1640 Glutamax medium supplemented with 10% heat inactivated FCS and 50 U/ml penicillin-streptomycin (Life Technologies).
Human monocyte-like cells were seeded at 75000 per well in a 96-well plate and were differentiated overnight into macrophages with 10 ng/ml PMA (Phorbol Myristate Acetate). The following day, medium containing 10 ng/ml LPS (Lipopolysaccharide) were added. After 3 hours of LPS priming, concentrations of test compound in the range from 100 μM to 6 nM were added 30 min prior to NLRP3 inflammasome pathway stimulation with Nigericin 3.75 μM or MSU 200 μg/ml for 3 h.
For IL-1β quantification, supernatants were analyzed using HTRF kit according to the manufacturer's instructions (Cisbio 62HIL1BPEH). Briefly, in a 384-well ProxiPlate™ microplate, 8 μl of sample was mixed, with 4 μl of Anti-IL1β Cryptate antibody (40×) and Anti-IL1β XL antibody (40×). Then, incubated overnight at RT. Reading was done using an EnVision Reader (PerkinElmer).
IC50 (concentration corresponding to 50% inhibition) were determined using GraphPad Prism 8.

Setting [1] is: Homo sapiens, 3 h, IL-1β release, PMA-differentiated, LPS-primed cells, MSU 200 μg/ml for 3 h, read-out: IC50 Human monocyte-like cells MSU.
Where [2] appears, read: Homo sapiens, 3 h, read-out: IC50 Human monocyte-like cells Nigericin (μM).
[3] abbreviates: IL-1β release, PMA-differentiated, LPS-primed cells, MSU 200 μg/ml for 3 h, read-out: IC50 Human monocyte-like cells MSU.

Each structure is given as a SMILES string. Read-outs that look alike come from different tables or passages of the source.

As to `CCOC(=O)C1(c2ccon2)CN=C(Nc2c(-c3ccnc(OC)c3)cc(F)cc2C(C)C)O1` (racemic) [Example 1, ethyl 2-{[4-fluoro-2-(2-methoxypyridin-4-yl)-6-(propan-2-yl)phenyl]amino}-5-(1,2-oxazol-3-yl)-4,5-dihydro-1,3-oxazole-5-carboxylate], the concentration for half-maximal inhibition (IC50) under setting [1] was < 1 µM.

Turning to `CCOC(=O)C1(c2ccon2)CN=C(Nc2c(-c3ccnc(OC)c3)ccc3c2CCC3)O1` (racemic) [Example 4, ethyl 2-{[5-(2-methoxypyridin-4-yl)-2,3-dihydro-1H-inden-4-yl]amino}-5-(1,2-oxazol-3-yl)-4,5-dihydro-1,3-oxazole-5-carboxylate], under setting [1], the IC50 was < 1 µM.

As for `CCOC(=O)C1(c2ccon2)CN=C(Nc2c3c(c(C)c4c2CCC4)CCC3)O1` (racemic) [Example 7, ethyl 5-(isoxazol-3-yl)-2-((8-methyl-1,2,3,5,6,7-hexahydro-s-indacen-4-yl)amino)-4,5-dihydrooxazole-5-carboxylate], the IC50 under setting [1] was < 1 µM.

`COc1cc(-c2ccc3c(c2NC2=NCC(C(=O)O)(c4ccon4)O2)CCC3)ccn1` (racemic) [Example 12, 2-{[5-(2-methoxypyridin-4-yl)-2,3-dihydro-1H-inden-4-yl]amino}-5-(1,2-oxazol-3-yl)-4,5-dihydro-1,3-oxazole-5-carboxylic acid]: the IC50 under setting [1] fell in the range of 1 to 10 µM.

Take `CCOC(=O)C1(c2ccon2)CN=C(Nc2c(-c3ccnc(OC)c3)ccc3c2CCO3)O1` (racemic) [Example 17, ethyl 5-(isoxazol-3-yl)-2-((5-(2-methoxypyridin-4-yl)-2,3-dihydrobenzofuran-4-yl)amino)-4,5-dihydrooxazole-5-carboxylate]: the IC50 under setting [1] was < 1 µM.

Regarding `CCOC(=O)C1(c2ccon2)CN=C(Nc2c(-c3ccncc3)cc(F)cc2C(C)C)O1` (racemic) [Example 18, ethyl 2-((4-fluoro-2-isopropyl-6-(pyridin-4-yl)phenyl)amino)-5-(isoxazol-3-yl)-4,5-dihydrooxazole-5-carboxylate], the IC50 under setting [1] was < 1 µM.

With `CCOC(=O)C1(c2ccon2)CN=C(Nc2c(-c3ccnc(OC)c3)cc(F)c3c2CCC3)O1` (racemic) [Example 19, ethyl 2-((7-fluoro-5-(2-methoxypyridin-4-yl)-2,3-dihydro-1H-inden-4-yl)amino)-5-(isoxazol-3-yl)-4,5-dihydrooxazole-5-carboxylate], the IC50 under setting [1] was < 1 µM.

As for `CCOC(=O)C1(c2ccon2)CN=C(Nc2c3c(cc(C)c2-c2ccnc(OC)c2)CCC3)O1` (racemic) [Example 20, ethyl 5-(isoxazol-3-yl)-2-((5-(2-methoxypyridin-4-yl)-6-methyl-2,3-dihydro-1H-inden-4-yl)amino)-4,5-dihydrooxazole-5-carboxylate], the IC50 under setting [1] is < 1 µM.

On to `CCOC(=O)C1(c2ccon2)CN=C(Nc2c3c(c(C(F)(F)F)c4c2CCC4)CCC3)O1` (racemic) [Example 21, ethyl 5-(isoxazol-3-yl)-2-((8-(trifluoromethyl)-1,2,3,5,6,7-hexahydro-s-indacen-4-yl)amino)-4,5-dihydrooxazole-5-carboxylate], for which the IC50 was 1 to 10 µM under setting [1] and < 1 µM under setting [2].

Turning to `CCOC(=O)C1(c2ccon2)CN=C(Nc2c(C(C)C)cc(F)cc2C(C)C)O1` (racemic) [Example 23, ethyl 2-((4-fluoro-2,6-diisopropylphenyl)amino)-5-(isoxazol-3-yl)-4,5-dihydrooxazole-5-carboxylate], the IC50 under setting [1] is 1 to 10 µM.

In the case of `CCOC(=O)C1(c2ccon2)CN=C(Nc2c(-c3ccnc(OC)c3)cc(F)cc2C(C)C)O1` (single isomer, unassigned) [Example 2, ethyl 2-{[4-fluoro-2-(2-methoxypyridin-4-yl)-6-(propan-2-yl)phenyl]amino}-5-(1,2-oxazol-3-yl)-4,5-dihydro-1,3-oxazole-5-carboxylate], under setting [1], the IC50 is < 1 µM.

For `CCOC(=O)C1(c2ccon2)CN=C(Nc2c(-c3ccnc(OC)c3)cc(F)cc2C(C)C)O1` (single isomer, unassigned) [Example 3, ethyl 2-{[4-fluoro-2-(2-methoxypyridin-4-yl)-6-(propan-2-yl)phenyl]amino}-5-(1,2-oxazol-3-yl)-4,5-dihydro-1,3-oxazole-5-carboxylate], under setting [3], the IC50 was in the range of 1 to 10 µM.

With `CCOC(=O)C1(c2ccon2)CN=C(Nc2c3c(c(-c4ccccc4)c4c2CCC4)CCC3)O1` (single isomer, unassigned) [Example 9, ethyl 5-(isoxazol-3-yl)-2-((8-phenyl-1,2,3,5,6,7-hexahydro-s-indacen-4-yl)amino)-4,5-dihydrooxazole-5-carboxylate], the IC50 was 1 to 10 µM under setting [2] and < 1 µM under setting [3].

Consider `COc1cc(-c2cc(F)cc(C(C)C)c2NC2=NCC(C(=O)O)(c3ccon3)O2)ccn1` (single isomer, unassigned) [Example 11, 2-{[4-fluoro-2-(2-methoxypyridin-4-yl)-6-(propan-2-yl)phenyl]amino}-5-(1,2-oxazol-3-yl)-4,5-dihydro-1,3-oxazole-5-carboxylic acid], for which the IC50 is < 1 µM under setting [1] and 1 to 10 µM under setting [2].

Turning to `Cc1c2c(c(NC3=NCC(C(=O)O)(c4ccon4)O3)c3c1CCC3)CCC2` (single isomer, unassigned) [Example 15, 2-[(8-methyl-1,2,3,5,6,7-hexahydro-s-indacen-4-yl)amino]-5-(1,2-oxazol-3-yl)-4,5-dihydro-1,3-oxazole-5-carboxylic acid], the IC50 under setting [1] fell in the range of 1 to 10 µM.

Turning to `CCOC(=O)C1(c2ccon2)CN=C(Nc2c3c(c(-c4ccccc4)c4c2CCC4)CCC3)O1` (single isomer, unassigned) [Example 16, ethyl 5-(isoxazol-3-yl)-2-((8-phenyl-1,2,3,5,6,7-hexahydro-s-indacen-4-yl)amino)-4,5-dihydrooxazole-5-carboxylate], the half-maximal inhibitory concentration (IC50) runs as follows: under setting [3], 10 to 30 µM; (read-out: IC50 Human monocyte-like cells Nigericin, IL-1β release, PMA-differentiated, LPS-primed cells, Nigericin 3.75 μM for 3 h) 1 to 10 µM.

In the case of `COc1cc(-c2cc(F)cc(C(C)C)c2NC2=NCC(C(=O)O)(c3ccon3)O2)ccn1` (stereo not shown) [Example 10, 2-{[4-fluoro-2-(2-methoxypyridin-4-yl)-6-(propan-2-yl)phenyl]amino}-5-(1,2-oxazol-3-yl)-4,5-dihydro-1,3-oxazole-5-carboxylic acid], the IC50 under setting [1] was < 1 µM.

Regarding `COc1cc(-c2ccc3c(c2NC2=NCC(C(=O)O)(c4ccon4)O2)CCC3)ccn1` (stereo not shown) [Example 13, 2-{[5-(2-methoxypyridin-4-yl)-2,3-dihydro-1H-inden-4-yl]amino}-5-(1,2-oxazol-3-yl)-4,5-dihydro-1,3-oxazole-5-carboxylic acid], the half-inhibitory concentration (IC50) by setting is: under setting [1], < 1 µM; under setting [2], 10 to 30 µM.

`Cc1c2c(c(NC3=NCC(C(=O)O)(c4ccon4)O3)c3c1CCC3)CCC2` (stereo not shown) [Example 14, 2-[(8-methyl-1,2,3,5,6,7-hexahydro-s-indacen-4-yl)amino]-5-(1,2-oxazol-3-yl)-4,5-dihydro-1,3-oxazole-5-carboxylic acid]: the IC50 under setting [1] was in the range of 1 to 10 µM.

Turning to `COc1cc(-c2ccc3c(c2NC2=NCC(C(=O)O)(c4ccon4)O2)CCO3)ccn1` (stereo not shown) [Example 24, 5-(isoxazol-3-yl)-2-((5-(2-methoxypyridin-4-yl)-2,3-dihydrobenzofuran-4-yl)amino)-4,5-dihydrooxazole-5-carboxylic acid], the IC50 under setting [1] was 1 to 10 µM.

With `CC(C)c1cc(F)cc(-c2ccncc2)c1NC1=NCC(C(=O)O)(c2ccon2)O1` (stereo not shown) [Example 25, 2-((4-fluoro-2-isopropyl-6-(pyridin-4-yl)phenyl)amino)-5-(isoxazol-3-yl)-4,5-dihydrooxazole-5-carboxylic acid], the IC50 under setting [1] fell in the range of 1 to 10 µM.

Take `COc1cc(-c2cc(F)c3c(c2NC2=NCC(C(=O)O)(c4ccon4)O2)CCC3)ccn1` (stereo not shown) [Example 26, 2-((7-fluoro-5-(2-methoxypyridin-4-yl)-2,3-dihydro-1H-inden-4-yl)amino)-5-(isoxazol-3-yl)-4,5-dihydrooxazole-5-carboxylic acid]: the IC50 under setting [1] lay within 1 to 10 µM.

On to `COc1cc(-c2c(C)cc3c(c2NC2=NCC(C(=O)O)(c4ccon4)O2)CCC3)ccn1` (stereo not shown) [Example 27, 5-(isoxazol-3-yl)-2-((5-(2-methoxypyridin-4-yl)-6-methyl-2,3-dihydro-1H-inden-4-yl)amino)-4,5-dihydrooxazole-5-carboxylic acid], for which the half-inhibitory concentration (IC50) is < 1 µM under setting [1] and 1 to 10 µM under setting [2].

Consider `O=C(O)C1(c2cnoc2)CN=C(Nc2c3c(c(-c4ccccc4)c4c2CCC4)CCC3)O1` (stereo not shown) [Example 28, lithium 5-(isoxazol-4-yl)-2-((8-phenyl-1,2,3,5,6,7-hexahydro-s-indacen-4-yl)amino)-4,5-dihydrooxazole-5-carboxylate], for which the IC50 (Homo sapiens, 3 h, read-out: IC50 Human monocyte-like cells MSU (μM)) fell in the range of 10 to 30 µM and the half-maximal inhibitory concentration (IC50) under setting [2] is 10 to 30 µM.
